Type in all cases: biochemical, Comamonas testosteroni DSM 5416
In test [1] the test system is N-acyl-L-proline acylase. As to the kind of experiment: Stereospecificity of hydrolysis of N-acetyl-D,L-proline. The following applies: for L-proline (mmol/l) produced: substrate 10 mmol/l, two hours at 30° C., pH 7.0. As for the experimental part:
The hydrolysis of N-acyl-L-proline, N-acetyl-D,L-proline and N-acetyl-D-proline was determined in the following reaction mixture:
The reaction mixture was incubated for two hours at 30° C. and the L-proline produced was determined by amino acid analysis as in Example 10.

Test [2] deals with 1,10-phenanthroline-inactivated acylase (apoenzyme). Put plainly: Influence of cations on the 1,10-phenanthroline-inactivated acylase. The following applies: for Influence on the apoenzyme (in words): 1,10-phenanthroline-inactivated acylase. As for the experimental part:
FPLC/Mono Q purified enzyme was incubated for 24 hours at 4° C. in the presence of 1 mM 1,10-phenanthroline. Subsequently, enzyme and the chelating agent 1,10-phenanthroline were separated by gel filtration via Sephadex G-25M (PD-10, firm Pharmacia/LKB, Uppsala, Sweden). The enzyme-containing fractions were combined and the activity determined without and in the presence of various cations (1 mM).

For test [3], the system named is N-acyl-L-proline acylase. As to conditions: for Activity (%): no agent = 100. As for the experimental part:
The enzymatic reaction was interrupted by pipetting 50 μl of the enzyme sample into 1.25 ml 100% acetic acid. Subsequently, 0.45 ml 0.1M tris-HCl buffer pH 7.0 and 1.25 ml ninhydrin reagent (3 g ninhydrin dissolved by heating in a mixture of 60 ml 100% acetic acid and 40 ml 6M phosphoric acid) were added. The ninhydrin reagent was freshly prepared daily. The test tubes were loosely closed with screw-on caps, incubated 30 minutes at 100° C. and subsequently cooled down in an ice bath.
The L-proline, liberated by the enzymatic hydrolysis, forms a red dye with ninhydrin at 100° C. The absorption of the red dye was measured in a spectrophotometer at 480 nm relative to a control batch without crude extract (=substrate blank). The concentration of the L-proline produced was determined using a straight calibration line with L-proline in a range of 5 to 100 nmoles per 50 μl specimen. The enzyme activity was indicated in international units; thus, one unit (U) corresponded to an amount of 1 μmole L-proline produced per minute.
The influence of various chemical agents as well as metal cations and anions on the reaction speed of the hydrolytic splitting of N-acetyl-L-proline was determined at 30° C. in a reaction batch with the following composition: […]
The enzyme was pre-incubated for 10 minutes at 30° C. with the compound before the addition of substrate to start the reaction.
The enzyme was pre-incubated for 10 minutes at 30° C. with the agent before the substrate was added to start the reaction.
The enzyme was pre-incubated 10 minutes at 30° C. with the agent before the substrate was added to start the reaction. The concentration of the anions was 10 mM in each instance.

The test system of test [4] is N-acyl-L-proline acylase. As to the kind of experiment: Substrate specificity: hydrolysis of N-acyl amino acids and proline derivatives. On the procedure: The activity of acylase was determined with various N-acetyl-L-amino acids and N-chloroacetyl-L-amino acids in a reaction batch with the following composition:
The reaction temperature was 30° C. and the incubation time 15 minutes to 24 hours. 0.2 ml samples of the reaction batch in each instance were mixed at different times with 0.2 ml 10% (w/v) trichloroacetic acid and the denatured protein centrifuged off for 10 minutes at 11,000 rpms in a table centrifuge. The supernatant was diluted with a 0.1M Na citrate buffer pH 2.2 with 25% (v/v) 2.2-thiodiethanol and 0.1% (v/v) phenol 1:5 and 1:50 respectively. The amino acids released were quantitatively detected by an amino-acid analyzer LC 5001 of the firm Biotronic, Maintal, Federal Republic of Germany. In Table 16, the substrates marked with * and the corresponding products were quantified by means of HPLC.
The activity of the acylase was determined with various proline derivatives as under a).

Where [5] appears, read: inactivated enzyme after gel filtration + cation 1 mM, native enzyme = 100, no agent = 21.
Setting [6] is: metal cation salt 1 mM, native enzyme.
Setting [7] is: metal cation salt 10 mM, native enzyme.

Entries after “also recorded” stand apart in the source; their conditions may differ. Like-named read-outs stand apart in the source and are kept apart here. Bounds are passed on as bounds.

The values that follow come from patent US5219741A, “Method of making L-proline using an N-acyl-L-protine acylase” (priority 1990, dated 1993).

Consider `CC(=O)N1CCCC1C(=O)O` (racemic) [N-acetyl-D,L-proline], for which, in the test on N-acyl-L-proline acylase [1], the “L-proline (mmol/l) produced” value amounted to 4.82 mmol/L.
For the compound `c1cnc2c(c1)ccc1cccnc12` [1,10 phenanthroline, 1,10-phenanthroline], the “Activity (%)” value in test [2] (enzyme incubated 24 hours at 4° C. with 1 mM 1,10-phenanthroline, before gel filtration, native enzyme = 100) is reported as 2%; in the test on N-acyl-L-proline acylase [3] (chemical agent 1 mM, 10 min pre-incubation at 30° C.) it was 27%; in the test on N-acyl-L-proline acylase [3] (chemical agent 10 mM, 10 min pre-incubation at 30° C.), 1%. Besides, the “Influence on the acylase activity (in words)” value in the test on N-acyl-L-proline acylase [3] (native enzyme) is “inhibiting action; also recorded: significantly inhibit”.
In the case of `[Ba+2].[Cl-].[Cl-]` [BaCl2], the results for the “Activity (%)” value (in test [2] (setting [5]); with N-acyl-L-proline acylase [3] (setting [6]); with N-acyl-L-proline acylase [3] (setting [7])) were 18%, 100% and 99%, respectively.
For the compound `[Ca+2].[Cl-].[Cl-]` [CaCl2], the results for the “Activity (%)” value (in test [2] (setting [5]); with N-acyl-L-proline acylase [3] (setting [6]); in the test with N-acyl-L-proline acylase [3] (setting [7])) were 17%, 100% and 91%, respectively.
Consider `[Cl][Cd][Cl]` [CdCl2], for which the “Activity (%)” value came to 20% in test [2] (setting [5]), 89% with N-acyl-L-proline acylase [3] (setting [6]) and 65% in the test on N-acyl-L-proline acylase [3] (setting [7]). Moreover, in the test with N-acyl-L-proline acylase [3] (native enzyme), the “Influence on the acylase activity (in words)” value is reported as “inhibiting action”.
With `[Cl-].[Cl-].[Co+2]` [CoCl2], the “Influence on the apoenzyme (in words)” value in test [2] is listed as “activating action”. In addition, the “Activity (%)” value in test [2] (setting [5]) is reported as 80%; in the test with N-acyl-L-proline acylase [3] (setting [6]) it was 103%; with N-acyl-L-proline acylase [3] (setting [7]) it was 92%.
Consider `O=S(=O)([O-])[O-].[Cu+2]` [CuSO4], for which the “Influence on the apoenzyme (in words)” value in test [2] is recorded as “inhibited”. In addition, the “Activity (%)” value is 6% in test [2] (setting [5]), 61% with N-acyl-L-proline acylase [3] (setting [6]) and 19% in the test on N-acyl-L-proline acylase [3] (setting [7]). Further, the “Influence on the acylase activity (in words)” value with N-acyl-L-proline acylase [3] (native enzyme) was “inhibiting action”.
Take `[Cl][Fe]([Cl])[Cl]` [FeCl3]: the figures for the “Activity (%)” value (in test [2] (setting [5]); in the test with N-acyl-L-proline acylase [3] (setting [6]); in the test on N-acyl-L-proline acylase [3] (setting [7])) were 5%, 83% and 58%, respectively.
Consider `O=S(=O)([O-])[O-].[Fe+2]` [FeSO4], for which the “Activity (%)” value came to 12% in test [2] (setting [5]) and 20% in the test with N-acyl-L-proline acylase [3] (setting [6]).
Take `[Cl][Hg][Cl]` [HgCl2]: the “Influence on the apoenzyme (in words)” value in test [2] is reported as “inhibited”. Also, the “Activity (%)” value turned out to be 6% in test [2] (setting [5]), 67% with N-acyl-L-proline acylase [3] (setting [6]) and 9% with N-acyl-L-proline acylase [3] (setting [7]). In the test on N-acyl-L-proline acylase [3] (native enzyme), the “Influence on the acylase activity (in words)” value is “inhibiting action”.
`[Cl-].[Cl-].[Mg+2]` [MgCl2]: the “Activity (%)” value is on record as 25% in test [2] (setting [5]), 106% in the test with N-acyl-L-proline acylase [3] (setting [6]) and 99% in the test on N-acyl-L-proline acylase [3] (setting [7]).
Regarding `[Cl][Mn][Cl]` [MnCl2], the “Activity (%)” value in test [2] (setting [5]) is given as 23%; in the test on N-acyl-L-proline acylase [3] (setting [6]), 104%; with N-acyl-L-proline acylase [3] (setting [7]), 103%.
Consider `CC(=O)N1CCC[C@@H]1C(=O)O` [N-acetyl-D-proline], for which the “Hydrolysis by the acylase (in words)” value in the test with N-acyl-L-proline acylase [4] was “not hydrolized”. Further, the “Relative Activity (%)” value in the test on N-acyl-L-proline acylase [4] (proline derivatives, 30° C., pH 7.0, N-acetyl-L-proline = 100%) came out at 0%. Besides, in the test with N-acyl-L-proline acylase [1], the “Stereospecific hydrolysis (in words)” value was “not” and the “L-proline (mmol/l) produced” value is below 0.01 mmol/L.
Turning to `O=[N+]([O-])[O-].O=[N+]([O-])[O-].[Ni+2]` [Ni(NO3)2], the “Activity (%)” value was 21% in test [2] (setting [5]), 94% in the test with N-acyl-L-proline acylase [3] (setting [6]) and 75% in the test on N-acyl-L-proline acylase [3] (setting [7]).
As to `[Cl][Sn][Cl]` [SnCl2], in test [2], the “Influence on the apoenzyme (in words)” value was “inhibited”. The “Activity (%)” value in test [2] (setting [5]) is on record as 10%; with N-acyl-L-proline acylase [3] (setting [6]) it was 72%; in the test with N-acyl-L-proline acylase [3] (setting [7]) it was 55%. Moreover, the “Influence on the acylase activity (in words)” value in the test on N-acyl-L-proline acylase [3] (native enzyme) is recorded as “inhibiting action”.
Take `[Cl-].[Cl-].[Sr+2]` [SrCl2]: the “Activity (%)” value was 23% in test [2] (setting [5]), 104% in the test with N-acyl-L-proline acylase [3] (setting [6]) and 100% in the test with N-acyl-L-proline acylase [3] (setting [7]).
With `O=S(=O)([O-])[O-].[Zn+2]` [ZnSO4], the “Influence on the apoenzyme (in words)” value in test [2] was “activating action”. Also, the “Activity (%)” value came out at 54% in test [2] (setting [5]), 77% with N-acyl-L-proline acylase [3] (setting [6]) and 32% with N-acyl-L-proline acylase [3] (setting [7]). In addition, the “Influence on the acylase activity (in words)” value in the test with N-acyl-L-proline acylase [3] (native enzyme) is “inhibiting action”.
